Laboratory results from PMC6934599, “Phenoxyethyl Piperidine/Morpholine Derivatives as PAS and CAS Inhibitors of Cholinesterases: Insights for Future Drug Design” (Scientific Reports, 2019).
“Also recorded” adds a separate entry of the source. Read-outs that look alike come from different tables or passages of the source.

Columns and labels:
[1] = target: T1, AChE (E.C.3.1.1.7, from electric eel) (Electrophorus electricus, UniProt O42275); experiment: biochemical; assay type: biochemical; conditions: for cholinesterase inhibitory activity against eeAChE: in words
T1 construct: purchased Sigma-Aldrich and Fluka
T1 sequence (O42275 24-633): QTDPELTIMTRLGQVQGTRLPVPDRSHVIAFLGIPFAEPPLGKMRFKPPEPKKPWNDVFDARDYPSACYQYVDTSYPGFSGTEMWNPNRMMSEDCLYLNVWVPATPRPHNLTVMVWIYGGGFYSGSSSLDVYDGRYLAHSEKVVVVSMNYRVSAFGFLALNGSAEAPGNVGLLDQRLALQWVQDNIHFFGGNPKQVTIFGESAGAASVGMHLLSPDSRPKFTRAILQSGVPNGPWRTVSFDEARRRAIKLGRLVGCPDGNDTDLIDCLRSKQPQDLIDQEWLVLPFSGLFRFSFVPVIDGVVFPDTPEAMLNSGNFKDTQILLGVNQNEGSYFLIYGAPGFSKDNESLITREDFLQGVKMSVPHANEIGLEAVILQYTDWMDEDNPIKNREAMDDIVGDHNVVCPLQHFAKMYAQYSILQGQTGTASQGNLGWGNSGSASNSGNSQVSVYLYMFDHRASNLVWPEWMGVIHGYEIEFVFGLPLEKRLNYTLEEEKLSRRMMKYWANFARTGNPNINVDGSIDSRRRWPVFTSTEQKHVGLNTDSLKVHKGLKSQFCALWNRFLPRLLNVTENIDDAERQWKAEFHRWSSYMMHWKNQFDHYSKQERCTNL
Experimental: (§1) All the synthesized compounds were screened for their cholinesterase activity by Ellman’s spectrophotometric method with a slight modification. […] In brief, enzymatic reactions were accomplished in 96-well plates with total volume of 270 µL. Each well contained 0.1 M phosphate buffer (pH 7.4), 0.08 U/mL AChE or 0.05 U/mL BuChE and 0.3 mM of DTNB. In order to considering the influence of DMSO percentage on the enzymatic activity of AChE, different concentrations of the test sample were prepared in final concentrations of 0.2% DMSO. Then contents were incubated for 15 min at room temperature. The reaction was started with the addition of 20 µL of 0.45 mM substrate (ATCI/BTCI) into premixed enzyme/buffer/inhibitor mixture and monitored by using plate reader Synergy HT, Biotek, USA at 412 nm. The activity in the absence of sample compounds was considered as a blank. The percentage inhibition was calculated from (blank – test sample)/blank × 100.

[2] = target: T2, BuChE (E.C.3.1.1.8, from equine serum) (Equus caballus, UniProt P81908); experiment: biochemical; assay type: biochemical; conditions: for IC50: modified Ellman's method, read-out: eqBuChE IC50; for cholinesterase inhibitory activity against eqBuChE: in words; for inhibitory activity for eqBuChE: up to 100 µM concentrations
T2 construct: BuChE (E.C.3.1.1.8, from equine serum); purchased Sigma-Aldrich and Fluka; host or cells: equine serum
T2 sequence (P81908 whole entry): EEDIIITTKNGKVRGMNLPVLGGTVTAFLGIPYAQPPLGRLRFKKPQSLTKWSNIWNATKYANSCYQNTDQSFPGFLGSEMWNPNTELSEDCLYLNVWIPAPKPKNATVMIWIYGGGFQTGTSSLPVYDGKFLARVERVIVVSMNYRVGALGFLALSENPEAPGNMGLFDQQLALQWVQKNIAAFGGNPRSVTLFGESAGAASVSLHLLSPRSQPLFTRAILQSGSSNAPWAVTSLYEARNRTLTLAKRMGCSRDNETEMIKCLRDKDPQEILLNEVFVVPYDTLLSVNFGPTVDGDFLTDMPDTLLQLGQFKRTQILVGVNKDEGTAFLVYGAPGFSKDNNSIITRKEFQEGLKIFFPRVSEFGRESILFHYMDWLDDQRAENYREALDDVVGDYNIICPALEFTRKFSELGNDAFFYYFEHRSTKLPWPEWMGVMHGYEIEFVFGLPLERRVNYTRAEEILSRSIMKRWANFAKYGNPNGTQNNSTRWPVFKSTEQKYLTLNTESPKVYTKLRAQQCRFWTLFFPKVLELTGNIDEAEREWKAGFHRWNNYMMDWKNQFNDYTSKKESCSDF
Experimental: as §1

eqBuChE = target: T3, eqBuChE (Equus caballus, UniProt P81908); experiment: Kinetic study of eqBuChE inhibition (Lineweaver-Burk); assay type: biochemical
T3 construct: BuChE (E.C.3.1.1.8, from equine serum); purchased Sigma-Aldrich and Fluka; host or cells: equine serum
T3 sequence (P81908 whole entry): as above
Experimental: (§2) To determine the mechanisms of action of 5c and 7c, a series of experiments were performed at different concentrations of the substrate ATCI/BTCI. The inhibitor concentrations were (IC50, 2IC50). Substrates ATCI/BTCI concentrations were 0, 0.13, 0.3, 0.45, 0.675, 1.01 and 1.51 mM in all kinetic studies. Pre-incubation and measurement time were the same as reported in the perivous assay protocol. Kinetic characterization analysis was done spectrometrically at 412 nm.

eeAChE = target: T4, eeAChE (Electrophorus electricus, UniProt O42275); experiment: Kinetic study of eeAChE inhibition (Lineweaver-Burk); assay type: biochemical
T4 construct: purchased Sigma-Aldrich and Fluka
T4 sequence (O42275 24-633): as the sequence (O42275 24-633) above
Experimental: Two fixed concentrations of the inhibitor (IC50, 2IC50) were chosen and for each concentration, the initial velocity (V) of the substrate ATCI/BTCI hydrolysis was measured at different concentrations in the range of 0–1.5 mM. […] Furthermore, Ki value was obtained by extrapolating the slopes of Lineweaver-Burk plots against inhibitor concentrations (Fig. 3B).
as §2

AChE = conditions: cited from earlier work
Aβ peptide = conditions: cited from earlier work
[3] = modified Ellman's method, read-out: eeAChE IC50

N#CC1=C(N)OC2=C(C(=O)CCC2)C1c1ccc(OCCN2CCCCC2)cc1 (centres unmarked) [7a, 2-Amino-5-oxo-4-(4-(2-(piperidin-1-yl)ethoxy)phenyl)-5,6,7,8-tetrahydro-4H-chromene-3-carbonitrile]
IC50 [1, 3]: 20.4 ± 9.3 µM
IC50 [2]: 8.1 ± 0.5 µM

O=Cc1ccc(OCCN2CCOCC2)cc1 [3b, 4-(2-morpholinoethoxy)benzaldehyde]
cholinesterase inhibitory activity against eeAChE [1]: did not show any cholinesterase inhibitory activity
cholinesterase inhibitory activity against eqBuChE [2]: did not show any cholinesterase inhibitory activity

CC1(C)CC(=O)C2=C(C1)OC(N)=C(C#N)C2c1ccc(OCCN2CCCCC2)cc1 (centres unmarked) [7c, 2-Amino-7,7-dimethyl-5-oxo-4-(4-(2-(piperidin-1-yl)ethoxy)phenyl)-5,6,7,8-tetrahydro-4H-chromene-3-carbonitrile]
IC50 [1, 3]: 35.6 ± 3.7 µM
IC50 [2]: 2.5 ± 0.6 µM
type of inhibition of eqBuChE (eqBuChE; Lineweaver-Burk plot, substrate BTCI): mixed-type of inhibition
Ki (eqBuChE; plot of slopes against inhibitor concentration): 0.156 µM

COC(=O)/C(C#N)=C/c1ccc(OCCN2CCCCC2)cc1 [5c]
selectivity for AChE than for BuChE ([1]; eeAChE vs eqBuChE IC50): more than 200 fold
IC50 [1, 3]: 0.5 µM
inhibitory activity for eqBuChE [2]: no inhibitory activity was found; also recorded: no inhibition
type of inhibition of eeAChE (eeAChE; Lineweaver-Burk plots, substrate ATCI): mixed-type inhibition
Ki (eeAChE; slopes of Lineweaver-Burk plots against inhibitor concentrations): 0.053 µM

CC[N+](C)(CC)CCC[n+]1c(-c2ccccc2)c2cc(N)ccc2c2ccc(N)cc21 [Propidium, propidium]
effect on Aβ aggregation (Aβ peptide): reduces the aggregation

Cc1cc2c(c(=O)o1)C(c1ccc(OCCN3CCOCC3)cc1)C(C#N)=C(N)O2 (centres unmarked) [7f, 2-Amino-7-methyl-4-(4-(2-morpholinoethoxy)phenyl)-5-oxo-4H,5H-pyrano[4,3-b]pyran-3-carbonitrile]
cholinesterase inhibitory activity against eeAChE [1]: did not show any cholinesterase inhibitory activity
cholinesterase inhibitory activity against eqBuChE [2]: did not show any cholinesterase inhibitory activity

Cc1cc2c(c(=O)o1)C(c1ccc(OCCN3CCCCC3)cc1)C(C#N)=C(N)O2 (centres unmarked) [7e, 2-Amino-7-methyl-5-oxo-4-(4-(2-(piperidin-1-yl)ethoxy)phenyl)-4H,5H-pyrano[4,3-b]pyran-3-carbonitrile]
IC50 [1, 3]: 2.1 ± 0.05 µM
inhibitory activity for eqBuChE [2]: no inhibitory activity

CC[N+](C)(C)c1cccc(O)c1 [edrophonium]
IC50 (AChE): 5.36 µM
effect on Aβ aggregation (Aβ peptide): fails to slow down the Aβ aggregation

COc1cc2c(cc1OC)C(=O)C(CC1CCN(Cc3ccccc3)CC1)C2 (centres unmarked) [Donepezil, donepezil]
inhibition of the aggregation of Aβ peptide (Aβ peptide; at 100 µM, as stated in introduction section): 22%

N#CC(C#N)=Cc1ccc(OCCN2CCCCC2)cc1 [5a]
IC50 [1]: 2.8 ± 0.05 µM
inhibitory activity for eqBuChE [2]: no inhibitory activity

N#CC(C#N)=Cc1ccc(OCCN2CCOCC2)cc1 [5b]
cholinesterase inhibitory activity against eeAChE [1]: did not show any cholinesterase inhibitory activity
cholinesterase inhibitory activity against eqBuChE [2]: did not show any cholinesterase inhibitory activity
